Experiments:
islet β cells = test: Inhibitory effect on lymphocyte invasion (streptozotocin-induced autoimmunity to islet β cells); type: in vivo, DBA/2 mice; conditions: for islet cells invaded by lymphocytes in all mice: 0.1% in feed; for Degree of lymphocyte invasion 0 to 40% / Degree of lymphocyte invasion 40 to 60%: percentage of mice within this range, oral, streptozotocin 40 mg/kg i.p. for 5 days
Method: Streptozotocin was administered intraperitoneally for 5 days to 8-week-old DBA/2 mice at 40 mg/kg to induce autoimmunity of islet β cells. […] Mice in the control group were given only powdered feed during the same period.
(§1) Blood samples were collected from the tail vein before the start, during and on the final day of streptozotocin administration. The blood samples were centrifuged to obtain plasma, and the glucose levels of the obtained plasma were measured with a glucose analyzer (Sino-Test Co., Ltd.). In the figure, glucose levels (mg/dl) are plotted on the vertical axis, while time (days) is plotted on the horizontal axis. [drawing]
The mice used in the experiment were sacrificed following measurement of glucose levels on the final day of pioglitazone administration. The pancreas of each animal was excised and fixed with bouian solution. Thin tissue slices were prepared from the pancreas and the degree of lymphocyte invasion into islet cells was observed by a light microscope. […] Moreover, the degree of lymphocyte invasion was classified as either 0 to 40% or 40 to 60%. The number of mice classified within each range was illustrated in Table 3 as a percentage (%) relative to the total number of mice in the pioglitazone administration group and control groups.
Streptozotocin was administered intraperitoneally for 5 days to 8-week-old DBA/2 mice at 40 mg/kg to induce autoimmunity of islet β cells. […] Control mice were given only powdered feed during the same period.
as §1, with “(Sinotest).” for “(Sino-Test Co., Ltd.).”
The mice used in the experiment were sacrificed following measurement of glucose levels on the final day of drug administration. The pancreas of each animal was excised and fixed with bouian solution. Thin tissue slices were prepared from the pancreas and the degree of lymphocyte invasion into islet cells was observed by a light microscope. […] Moreover, the degree of lymphocyte invasion of each mouse was classified as either 0 to 40% or 40 to 60%.

Lewis rats = test: Inhibitory effect on bone destruction induced by adjuvant arthritis; type: in vivo; conditions: for inhibition of bone destruction as compared with the control group / bone destruction compared with the control group: Wilcoxon test; for Bone Destruction Score (points): right hind paw, day 21, maximum score 8, groups of 5; for Bone Destruction Inhibition Rate (%): versus control group
Method: The inhibitory effect was determined in a similar manner to that of Winder, et al. (Arthritis Rheum., Vol. 12, p. 472, 1969). Using Lewis rats (females, age 8-10 weeks, body weights: 160-200 g, Japan Charles River) in groups of 5 each, adjuvant (heat-killed Mycobacterium butyricum)was injected intradermally into the right hind paw of each rat at 100 µg/0.05 ml/paw to induce arthritis. The rats were orally administered troglitazone at 0.2%, pioglitazone at 0.05% and BRL-49653 at 0.005%, respectively, by mixing in powdered feed until day 20 taking the day of injection of adjuvant to be day 0. Rats in a control group were given powdered feed only during the same period. The rats were sacrificed on day 21. After excising the right hind paw (the injected paw), soft X-rays were taken of each paw to observe and score the state of bone destruction. Bone destruction was scored by evaluating into 5 ranks consisting of 0, 1, 2, 3 and 4, assigning 0 points in the absence of bone destruction (normal) and increasing scores depending on the state of joint destruction, bone destruction, deformation and osteophyte formation. The worst state of such bone disorders was assigned a score of 4. The bone disorders were scored at two locations, the calcaneus and the location extending from the tarsal bones to the metatarsal bones. Thus, the score for each animal was determined by calculating the total score for the two locations and the maximum score was 8 points.
The inhibitory effect was determined according to the methods of Winder, et al. (Arthritis Rheum., Vol. 12, p. 472, 1969). Using Lewis rats (females, age 8-10 weeks, body weights: 160 to 200 g, Japan Charles River) in groups of 5 each, adjuvant (heat-killed Mycobacterium butyricum)was injected intradermally into the sole of the right hind paw of each rat at 100 µg/0.05 ml/paw to induce arthritis. The rats were orally administered Compound A at 0.1% and Compound B at 0.1%, respectively, by mixing in powdered feed until day 20 taking the day of injection of adjuvant to be day 0. Rats in a control group were given powdered feed only during the same period. The rats were sacrificed on day 21. After excising the right hind paw (the injected paw), soft X-rays were taken of each paw to observe and score the state of bone destruction. Bone destruction was scored by evaluating into 5 ranks consisting of 0, 1, 2, 3 and 4, assigning 0 points in the absence of bone destruction (normal) and increasing scores depending on the state of joint destruction, bone destruction, deformation and osteophyte formation. The worst state of bone destruction was assigned a score of 4. Bone destruction was scored at two locations, the calcaneus and the location extending from the tarsal bones to the metatarsal bones. Thus, the score for each animal was determined by calculating the total score for the two locations and the maximum score was 8 points.

ddY mice = type: in vivo; conditions: 300 mg/kg oral, three ddY mice (males), observed for 5 days
Method: Acute toxicity was determined in accordance with conventional methods. […] 2, 3,4 and 10, all acute toxicities of these compounds were determined to be 300 mg/kg and more after oral administration of them.

[1] = Example 4, from Fig. 3 (plasma glucose levels) and Table 4
[2] = 0.1% in F2 powdered feed (BRL-49653: 125 mg/kg/day, Compound A: 94 mg/kg/day), 31 days
[3] = Example 2, in powdered feed until day 20: troglitazone 0.2%, pioglitazone 0.05%, BRL-49653 0.005%
[4] = Example 5, 0.1% in powdered feed until day 20
[5] = 0.2% in F2 powdered feed (236 mg/kg/day), 38 days
[6] = 0.2% in F2 powdered feed (240 mg/kg/day), 38 days

| Compound | islet cells invaded by lymphocytes in all mice (islet β cells; Example 4, 31 days) | onset of autoimmune disease (islet β cells; [1]) | Degree of lymphocyte invasion 0 to 40% (islet β cells; [2]) | Degree of lymphocyte invasion 40 to 60% (islet β cells; [2]) | inhibition of bone destruction as compared with the control group (Lewis rats; Example 2) | Bone Destruction Score (points) (Lewis rats; [3]) | Bone Destruction Inhibition Rate (%) (Lewis rats; [3]) | Bone Destruction Score (points) (Lewis rats; [4]) | Bone Destruction Inhibition Rate (%) (Lewis rats; [4]) | bone destruction compared with the control group (Lewis rats; Example 5) | also measured |
| --- | --- | --- | --- | --- | --- | --- | --- | --- | --- | --- | --- |
| CN(CCOc1ccc(CC2SC(=O)NC2=O)cc1)c1ccccn1 (centres unmarked) [BRL-49653, 5-{4-[2-(N-methyl-N-(2-pyridyl)amino)ethoxy]benzyl}thiazolidine-2,4-dione] | less than 40% | suppresses the onset of autoimmune disease | 100% | 0% | exhibited inhibition of bone destruction | 4.8 ± 1.2 points | 35.1% |  |  |  |  |
| CC(=NOCCOc1ccc(CC2SC(=O)NC2=O)cc1)c1ccc(-c2ccccn2)cc1 (centres unmarked) [Compound A, 5-[4-[2-[[[1-[4-(2-pyridyl)phenyl]ethylidene]amino]oxy]ethoxy]benzyl]thiazolidine-2,4-dione] | less than 40% | suppresses the onset of autoimmune disease | 100% | 0% |  |  |  | 6.6 ± 0.7 points | 17.5% | tended to be inhibited |  |
| COc1ccc2nc(COc3ccc(CC4SC(=O)NC4=O)cc3)n(C)c2c1 (centres unmarked) [Compound B, 5-[4-(6-methoxy-1-methylbenzimidazol-2-ylmethoxy)benzyl]thiazolidine-2,4-dione] |  |  |  |  |  |  |  | 6.6 ± 0.8 points | 17.5% | tended to be inhibited |  |
| CCc1ccc(CCOc2ccc(CC3SC(=O)NC3=O)cc2)nc1 (centres unmarked) [Pioglitazone, 5-{4-[2-(5-ethyl-2-pyridyl)ethoxy]benzyl}-2,4-thiazolidinedione] |  |  |  |  | exhibited inhibition of bone destruction | 4.4 ± 1.0 points | 40.5% |  |  |  | degree of lymphocyte invasion into islet cells in all mice (islet β cells; Example 3, 0.2% in feed (236 mg/kg/day), 38 days): ≤ 40%; onset of autoimmune disease (islet β cells; Example 3, on the basis of Fig. 2 (plasma glucose levels) and Table 3): suppresses the onset of autoimmune disease; Degree of lymphocyte invasion 0 to 40% (islet β cells; [5]): 100%; Degree of lymphocyte invasion 40 to 60% (islet β cells; [5]): 0% |
| Cc1c(C)c2c(c(C)c1O)CCC(C)(COc1ccc(CC3SC(=O)NC3=O)cc1)O2 (centres unmarked) [Troglitazone, 5-[4-(6-hydroxy-2,5,7,8-tetramethylchroman-2-ylmethoxy)benzyl]thiazolidine-2,4-dione] |  |  |  |  | significant inhibition of bone destruction | 5.4 ± 0.2 points | 27.0% |  |  |  | degree of lymphocyte invasion into islet cells in all mice (islet β cells; Example 1, 0.2% in feed (240 mg/kg/day), 38 days): ≤ 40%; onset of autoimmune disease (islet β cells; Example 1, on the basis of Fig. 1 (plasma glucose levels) and Table 1): suppresses the onset of autoimmune disease; Degree of lymphocyte invasion 0 to 40% (islet β cells; [6]): 100%; Degree of lymphocyte invasion 40 to 60% (islet β cells; [6]): 0%; survival (ddY mice): All animals survived |

— patent EP0953355A1, “REMEDY FOR AUTOIMMUNE DISEASES” (Sankyo Company, Limited, priority 1996, dated 1997)
